Entries after “also recorded” stand apart in the source; their conditions may differ.
Key:
A1AR = target: T1, A1AR (Homo sapiens, UniProt P30542); experiment: A1AR antagonistic activity: competition with equilibrium binding of [3H]CPX; conditions: for Antagonist activity, % (% inhibition of specific equilibrium binding of [3H]8-cyclopentyl-1,3-dipropylxanthine): 100 μM, N = 3
T1 sequence (P30542 1-326): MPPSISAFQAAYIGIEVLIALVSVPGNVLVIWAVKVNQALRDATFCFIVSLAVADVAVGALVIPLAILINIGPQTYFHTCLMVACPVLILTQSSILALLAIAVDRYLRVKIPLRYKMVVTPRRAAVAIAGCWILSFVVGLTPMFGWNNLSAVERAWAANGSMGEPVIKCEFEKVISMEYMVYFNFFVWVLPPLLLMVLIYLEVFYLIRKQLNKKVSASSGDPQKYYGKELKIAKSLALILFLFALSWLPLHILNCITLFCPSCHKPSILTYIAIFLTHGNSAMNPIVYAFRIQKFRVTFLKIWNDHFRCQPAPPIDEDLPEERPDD
Text: Several of the candidate AEs had substantial antagonistic activity. However, the AE and antagonist activities are unrelated (r^2=0.057, n=28).

hA1AR = target: T2, hA1AR (Homo sapiens, UniProt P30542); experiment: Assay of AE (allosteric enhancer) activity: slowing of 125I-ABA dissociation from the A1AR-G protein ternary complex; assay type: binding; conditions: CHO-K1 membranes; for AE Score, %: 0.1 mM final AE, specifically bound 125I-ABA remaining after 10 minutes of dissociation, Mean ± SEM (N = 3); for AE activity (in words): hA1AR
T2 construct: expressed in transfected cells; membranes
T2 sequence (P30542 1-326): T1 sequence (P30542 1-326)
Text: The allosteric enhancer (AE) activity was studied at the human A1AR (hA1AR) of a panel of compounds consisting of nine 2-amino-3-aroylthiophenes, (3a-i), eight 2-amino-3-benzoyl-4,5-dimethylthiophenes (13a-h), […] 3-aroyl-2-carboxy-4,5-dimethylthiophenes, (17a-e), ten 2-amino-3-benzoyl-5,6-ihydro-4H-cyclopenta[b]thiophenes, (19a-I), fourteen 2-amino-3-benzoyl-4,5,6,7-tetrahyd robenzo-[b]thiophenes, (20a-n), and fifteen 2-amino-3-benzoyl-5,6,7,8-tetrahydro-4H-cyclohepta[b]thiophenes, (21a-o). An in vitro assay employing the A1AR agonist ^125I-N^6-aminobenzyladenosine (^125I-ABA) and membranes from CHO-K1 cells stably expressing the hA1AR measured, as an index of AE activity, the ability of a candidate AE to slow the dissociation of the radioligand from the A1AR-G protein ternary complex.
The assay of AE activity consisted of three phases: formation of the ^125I-ABA-A1AR-G protein ternary complex; binding of the AE to the allosteric site, and dissociation of the complex by adding a combination of an A1AR antagonist (100 μM cyclopentyltheophylline) and 50 µM GTPγS. This procedure detects only AE activity since phase 3 (dissociation) is affected only by the allosteric activity of the test compound and is not affected by competitive antagonist activity. GTPγS is added to accelerate the dissociation process. […] The assay employed membranes from CHO-K1 cells stably expressing the hA1AR. For agonist binding to equilibrium, the incubation mixture consisted of 10 mM HEPES, pH 7.2, containing 0.5 mM MgCl2, 1 U/mL adenosine deaminase, 0.5 nM ^125I-ABA and 10 μg of membrane protein in a final volume of 100 μL. This phase of the assay was allowed to proceed to equilibrium (>90 minutes) at room temperature. At that point phase 2 was initiated by adding 50 μL of a 0.3 mM solution (0.1 mM final) of a candidate AE or DMSO vehicle to rapidly occupy the allosteric site. Stock solutions of AEs (10 mM) were prepared in DMSO. Five minutes later phase 3 was initiated by the addition of 50 μL of a solution containing 400 μM 8-cyclopentyltheophylline and 200 μM GTPγS. Ten minutes later, residual radioligand bound to Aireceptors was trapped on Whatman GF/C glass fiber filters using a Brandel cell harvester, washed 3 times over a 20 second interval and counted in a γ-counter. The percentage of specifically bound agonist remaining after 10 minutes of dissociation was used to calculate the “score” of AE activity:
AE activity score=100×(B−Bo)/(Beq−Bo)
Where B=residual binding (cpm) bound at the end of 10 minutes of dissociation in the presence of an AE, Bo=residual binding (cpm) at the end of 10 minutes of dissociation in the absence of an AE, and Beq=cpm bound at the end of phase 2. A compound with no AE activity has a score of 0 in this assay. An AE which completely arrests agonist dissociation will have a score of 100.

Row | Molecule | Antagonist activity, % (% inhibition of specific equilibrium binding of [3H]8-cyclopentyl-1,3-dipropylxanthine) (A1AR) | AE Score, % (hA1AR) | AE activity (in words) (hA1AR) | antagonist activity (in words) (A1AR; at 100 μM)
1 | Nc1sc2c(c1C(=O)c1ccc(Cl)cc1)CCCC2 [Compound 20g] | 9% | 68 ± 10% |  | 
2 | Nc1sc2c(c1C(=O)c1cccc(Cl)c1)CCC2 [Compound 19c] |  | 16 ± 2% |  | 
3 | Nc1sccc1C(=O)c1ccc(Cl)c(Cl)c1 [Compound 3h] |  | 1.7 ± 0.8% |  | 
4 | Nc1sc2c(c1C(=O)c1ccc(Cl)cc1)CCC2 [Compound 19f] | 40% | 22 ± 4% |  | 
5 | Nc1sc2c(c1C(=O)c1cccc(I)c1)CCCCC2 [Compound 21e] |  | 86 ± 9% |  | 
6 | Nc1sc2c(c1C(=O)c1ccc(I)cc1)CCCCC2 [Compound 21i] | 11% | 96 ± 4.7% |  | 
7 | Nc1sccc1C(=O)c1ccc(F)cc1 [Compound 3e] |  | 0% |  | 
8 | Nc1sc2c(c1C(=O)c1ccc(-c3ccccc3)cc1)CCC2 [Compound 19h] | 12% | 62 ± 5% |  | 
9 | Nc1sc2c(c1C(=O)c1ccc(F)cc1)CCCCC2 [Compound 21f] |  | 22 ± 2.7% |  | 
10 | Nc1sc2c(c1C(=O)c1ccc3ccccc3c1)CCCC2 [Compound 20n] |  | 86 ± 1% |  | 
11 | Nc1sc2c(c1C(=O)c1cccc(Br)c1)CCCCC2 [Compound 21d] | 12% | 78 ± 2.6% |  | 
12 | Cc1sc(N)c(C(=O)c2ccccc2)c1C [Compound 13a, (2-amino-4,5-dimethyl-thiophen-3-yl)(phenyl)methanone] |  | 9% |  | 
13 | 3-benzoyl-4,5-dimethylthiophene-2-carboxylic acid [Compound 17a] |  | 0% |  | 
14 | Nc1sccc1C(=O)c1ccc(Cl)cc1 [Compound 3f] |  | 0% |  | 
15 | Nc1sc2c(c1C(=O)c1ccc(C3CCCCC3)cc1)CCCC2 [Compound 20m] | 45% | 99 ± 6% |  | 
16 | CCOC(=O)c1c(N)sc2c1CCCC2 [Compound 20a] | 57% | 3.5 ± 1.8% | did not support AE activity; also recorded: None of the cycloalkylthiophenes having a 3-carboxyethyl substituent, namely, 19a, 20a and 21a, was active | 
17 | Nc1sc2c(c1C(=O)c1cccc(Cl)c1)CCCC2 [Compound 20d] | 2% | 70 ± 9% |  | 
18 | Nc1sc2c(c1C(=O)c1ccc(Cl)cc1)CCCCC2 [Compound 21g] |  | 65 ± 6.7% |  | 
19 | COc1cccc(C(=O)c2c(N)sc3c2CCCCC3)c1 [Compound 21j] | 19% | 99 ± 3.1% |  | 
20 | Nc1sc2c(c1C(=O)c1cccc(Br)c1)CCCC2 [Compound 20e] |  | 49 ± 1% |  | 
21 | Cc1sc(N)c(C(=O)c2cccc(Cl)c2)c1C [Compound 13c] |  | 14 ± 1% |  | 
22 | N#Cc1ccc(C(=O)c2c(N)sc3c2CCCC3)cc1 [Compound 20k] | 19% | 19 ± 0.9% | excellent activity | 
23 | Nc1sc2c(c1C(=O)c1ccccc1)CCCC2 [Compound 20b] | 35% | 19 ± 5% |  | 
24 | Cc1sc(C(=O)O)c(C(=O)c2cccc(C(F)(F)F)c2)c1C [Compound 17b] |  | 0% |  | 

Row | Molecule | Antagonist activity, % (% inhibition of specific equilibrium binding of [3H]8-cyclopentyl-1,3-dipropylxanthine) (A1AR) | AE Score, % (hA1AR) | AE activity (in words) (hA1AR) | antagonist activity (in words) (A1AR; at 100 μM)
25 | Cc1sc2c(c1C)C(c1cccc(F)c1)=Nc1sc(C)c(C)c1C(c1cccc(F)c1)=N2 [Compound 14, 4,9-bis-(3-fluorophenyl)-2,3,7,8-tetramethyl-1,6-dithia-5,10-diaza-dicyclopenta[a,e]-cyclooctene] |  |  | lacked AE activity | 
26 | Nc1sc2c(c1C(=O)c1ccc(F)cc1)CCC2 [Compound 19e] | 36% | 68 ± 1% |  | 
27 | Nc1sccc1C(=O)c1ccc(Br)cc1 [Compound 3g] |  | 0.8 ± 0.3% |  | 
28 | Cc1ccc(C(=O)c2c(N)sc3c2CCCC3)cc1 [Compound 20j] | 41% | 19 ± 7% |  | 
29 | Nc1sc2c(c1C(=O)c1ccc(Br)cc1)CCCC2 [Compound 20h] | 56% | 83 ± 5% |  | 
30 | Nc1sc2c(c1C(=O)c1ccccc1)CCCCC2 [Compound 21b] | 0% | 13 ± 3.8% |  | 
31 | Nc1sccc1C(=O)c1cccc(F)c1 [Compound 3b] |  | 0% |  | 
32 | Cc1sc(N)c(C(=O)c2cccc(Br)c2)c1C [Compound 13d] |  | 16 ± 4% |  | 
33 | Nc1sccc1C(=O)c1cccc(Cl)c1 [Compound 3c] |  | 0% |  | 
34 | Nc1sc2c(c1C(=O)c1ccc(I)cc1)CCCC2 [Compound 20i] | 31% | 86 ± 13% |  | 
35 | Nc1sccc1C(=O)c1ccc2ccccc2c1 [Compound 3i] |  | 3.2 ± 1.8% |  | 
36 | Cc1cccc(C(=O)c2c(N)sc(C)c2C)c1 [Compound 13e] |  | 18 ± 0.5% |  | 
37 | Nc1sc2c(c1C(=O)c1ccc(Br)cc1)CCC2 [Compound 19g] |  | 70 ± 7% |  | 
38 | Nc1sccc1C(=O)c1cccc(Br)c1 [Compound 3d] |  | 0.2 ± 0.03% |  | 
39 | Nc1sc2c(c1C(=O)c1ccc(F)cc1)CCCC2 [Compound 20f] | 51% | 17 ± 3% |  | 
40 | Cc1sc(C(=O)O)c(C(=O)c2ccc(-c3ccccc3)cc2)c1C [Compound 17c] |  | 0% |  | 
41 | Nc1sc2c(c1C(=O)c1cccc(F)c1)CCCC2 [Compound 20c] | 40% | 22 ± 5% |  | 
42 | Cc1cc(C)c(C(=O)c2c(N)sc(C)c2C)c(C)c1 [Compound 13h] |  | 0% |  | 
43 | Cc1sc(N)c(C(=O)c2cccc(F)c2)c1C [Compound 13b] |  | 0% |  | 
44 | COc1ccc(C(=O)c2c(N)sc3c2CCCCC3)cc1 [Compound 21k] |  | 85 ± 10% |  | 
45 | Cc1sc(N)c(C(=O)c2cccc(-c3ccccc3)c2)c1C [Compound 13g] |  | 12 ± 1.9% |  | 
46 | CCOC(=O)c1c(N)sc2c1CCCCC2 [Compound 21a] | 41% | 0.3 ± 0.01% | did not support AE activity; also recorded: None of the cycloalkylthiophenes having a 3-carboxyethyl substituent, namely, 19a, 20a and 21a, was active | 
47 | Nc1sc2c(c1C(=O)c1ccc(Br)cc1)CCCCC2 [Compound 21h] | 12% | 86 ± 3.8% | very high AE activity | nearly devoid of antagonist activity
48 | Nc1sc2c(c1C(=O)c1cccc(Cl)c1)CCCCC2 [Compound 21c] | 9% | 65 ± 8% |  | 

— patent US6713638B2, “2-amino-3-aroyl-4,5 alkylthiophenes: agonist allosteric enhancers at human A1 adenosine receptors” (priority 2001, dated 2004)
